Biological target: acetylcholinesterase (AChE) (Electrophorus electricus, UniProt O42275)
Assay: Ellman's assay with electric eel AChE, acetylthiocholine iodide substrate
Format: biochemical

acetylcholinesterase (AChE), sequence (O42275 24-633): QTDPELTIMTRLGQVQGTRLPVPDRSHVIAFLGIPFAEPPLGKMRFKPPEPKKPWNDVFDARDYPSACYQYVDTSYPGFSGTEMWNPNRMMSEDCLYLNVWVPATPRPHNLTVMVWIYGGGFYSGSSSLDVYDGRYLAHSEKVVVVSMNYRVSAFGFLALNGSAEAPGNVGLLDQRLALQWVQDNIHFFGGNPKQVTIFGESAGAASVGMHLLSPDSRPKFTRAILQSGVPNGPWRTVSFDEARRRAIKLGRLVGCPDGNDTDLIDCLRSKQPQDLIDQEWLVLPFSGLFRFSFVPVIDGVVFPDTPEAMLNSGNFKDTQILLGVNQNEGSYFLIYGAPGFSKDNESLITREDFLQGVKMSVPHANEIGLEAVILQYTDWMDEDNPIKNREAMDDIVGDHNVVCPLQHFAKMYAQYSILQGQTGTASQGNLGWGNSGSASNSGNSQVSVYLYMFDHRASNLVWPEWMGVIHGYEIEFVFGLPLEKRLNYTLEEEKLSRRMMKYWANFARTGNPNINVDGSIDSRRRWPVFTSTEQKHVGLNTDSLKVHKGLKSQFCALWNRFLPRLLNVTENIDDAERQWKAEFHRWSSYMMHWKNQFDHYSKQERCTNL

CCCCCCCCCCCC1=C(O)C(=O)C=C(O)C1=O [embelin, 2,5-dihydroxy-3-undecyl-1,4-benzoquinone]
IC50: 169 µM

Source: PMC6532548, “Embelin, a Potent Molecule for Alzheimer's Disease: A Proof of Concept From Blood-Brain Barrier Permeability, Acetylcholinesterase Inhibition and Molecular Docking Studies” (Frontiers in Neuroscience, 2019)
